Laboratory results from publication PMC9414584, “Synthesis and Biological Evaluation of Indole-2-Carboxamides with Potent Apoptotic Antiproliferative Activity as EGFR/CDK2 Dual Inhibitors” (Pharmaceuticals, 2022).
“And” between values parts separate entries of the source, which are not always exact repeats. Identical values can stand only once.

How the values were obtained:
[1] = Cell viability assay (MTT) on MCF-10A cells; type: cell-based; conditions: human, MCF-10A mammary gland epithelial cells
Method: (§1) The MCF-10A (human mammary gland epithelial) cell line was used in the cell viability experiment. Compounds 5a–k, 6a–c, and 7 were incubated with MCF-10A cells for 4 days at 50 µM concentration, and the viability of cells was determined using the 3-(4,5-dimethylthiazol-2-yl)-2,5-diphenyltetrazolium bromide (MTT) test.. All compounds had no cytotoxic effects, and the vitality of the cells was more than 83% for most of the compounds examined.
as §1, with “test.” for “test.. All compounds had no cytotoxic effects, and the vitality of the cells was more than 83% for most of the compounds examined.”

[2] = tested on: epithelial cancer cell line (A-549); assay: Antiproliferative MTT assay, A-549; type: cell-based; conditions: Homo sapiens, A549; A-549, MTT; read-out: Antiproliferative Activity IC50 ± SEM A-549
Text: (§2) Using the MTT assay with doxorubicin as the reference drug, the antiproliferative activities of 5a–k, 6a–c, and 7 against four human cancer cell lines, including pancreas cancer cell line (Panc-1), breast cancer cell line (MCF-7), colon cancer cell line (HT-29), and epithelial cancer cell line (A-549) were investigated.

[3] = tested on: breast cancer cell line (MCF-7); assay: Antiproliferative MTT assay, MCF-7; type: cell-based; conditions: Homo sapiens, MCF7; MCF-7, MTT; read-out: Antiproliferative Activity IC50 ± SEM MCF-7
Text: as §2

[4] = tested on: pancreas cancer cell line (Panc-1); assay: Antiproliferative MTT assay, Panc-1; type: cell-based; conditions: Homo sapiens; Panc-1, MTT; read-out: Antiproliferative Activity IC50 ± SEM Panc-1
Text: as §2

[5] = tested on: colon cancer cell line (HT-29); assay: Antiproliferative MTT assay, HT-29; type: cell-based; conditions: Homo sapiens; HT-29, MTT; read-out: Antiproliferative Activity IC50 ± SEM HT-29
Text: as §2

[6] = tested on: four human cancer cell lines (Panc-1, MCF-7, HT-29, A-549); assay: Antiproliferative MTT assay, average of four cancer cell lines (mean GI50); type: cell-based; conditions: Homo sapiens; average of A-549, MCF-7, Panc-1, HT-29; read-out: Antiproliferative Activity IC50 Average (GI50 against the four cell lines)
[7] = target: EGFR (Homo sapiens, UniProt P00533); assay: EGFR-TK inhibitory assay; type: biochemical; conditions: read-out: EGFR Inhibition IC50 ± SEM
EGFR, sequence (P00533 25-1210): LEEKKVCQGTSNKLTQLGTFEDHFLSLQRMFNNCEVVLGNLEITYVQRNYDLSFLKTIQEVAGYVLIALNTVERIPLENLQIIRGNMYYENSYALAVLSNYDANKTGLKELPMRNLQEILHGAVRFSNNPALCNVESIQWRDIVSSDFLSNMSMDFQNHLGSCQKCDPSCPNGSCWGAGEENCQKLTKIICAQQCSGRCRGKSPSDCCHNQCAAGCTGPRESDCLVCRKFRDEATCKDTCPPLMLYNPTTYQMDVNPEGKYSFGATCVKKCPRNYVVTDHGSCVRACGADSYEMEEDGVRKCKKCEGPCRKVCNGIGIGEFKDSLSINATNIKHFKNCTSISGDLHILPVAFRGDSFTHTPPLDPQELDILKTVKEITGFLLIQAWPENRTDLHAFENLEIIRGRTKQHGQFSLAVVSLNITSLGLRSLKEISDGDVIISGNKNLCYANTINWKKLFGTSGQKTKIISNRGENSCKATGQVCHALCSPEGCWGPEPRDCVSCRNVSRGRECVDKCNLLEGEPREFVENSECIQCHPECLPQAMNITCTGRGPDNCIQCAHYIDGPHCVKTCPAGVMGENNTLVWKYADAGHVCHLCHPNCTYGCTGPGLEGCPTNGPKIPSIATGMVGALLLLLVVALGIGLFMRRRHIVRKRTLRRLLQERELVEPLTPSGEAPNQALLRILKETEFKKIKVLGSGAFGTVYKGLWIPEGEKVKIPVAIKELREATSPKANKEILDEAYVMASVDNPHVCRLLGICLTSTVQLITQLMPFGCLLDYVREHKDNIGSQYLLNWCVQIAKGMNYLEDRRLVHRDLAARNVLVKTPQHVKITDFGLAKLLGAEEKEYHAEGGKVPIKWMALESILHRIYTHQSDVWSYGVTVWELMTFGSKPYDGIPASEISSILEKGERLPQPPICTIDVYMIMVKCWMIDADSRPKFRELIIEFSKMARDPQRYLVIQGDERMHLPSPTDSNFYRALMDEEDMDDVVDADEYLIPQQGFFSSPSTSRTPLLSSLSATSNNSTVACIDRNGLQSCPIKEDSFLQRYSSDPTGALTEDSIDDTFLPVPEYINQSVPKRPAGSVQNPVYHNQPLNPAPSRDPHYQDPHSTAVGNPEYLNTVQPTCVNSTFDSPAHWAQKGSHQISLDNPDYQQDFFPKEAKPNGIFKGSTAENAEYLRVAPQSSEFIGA

[8] = tested on: Caspase-8 in MCF-7 breast cancer cell line; assay: Caspase-8 level in MCF-7 cells; type: cell-based, human; conditions: for Caspase-8 Fold Change: vs control cells
[9] = tested on: Caspase-9 in MCF-7 breast cancer cell line; assay: Caspase-9 level in MCF-7 cells; type: cell-based, human; conditions: for Caspase-9 Fold Change: vs control cells
[10] = tested on: Cytochrome C in MCF-7 human breast cancer cell line; assay: Cytochrome C assay in MCF-7 cells; type: cell-based; conditions: for Cytochrome C Fold Change: vs untreated control cells
Method: The quantity of cytochrome C within the cell is important for activating caspases and commencing the intrinsic apoptosis process. […] The findings add to the evidence that apoptosis can be attributed to Cytochrome C overexpression and activation of the intrinsic apoptotic pathway triggered by the investigated compounds.
Indole-2-carboxamide derivatives 5d, 5e, and 5h were evaluated as Cytochrome C activators in the MCF-7 human breast cancer cell line.

[11] = tested on: Bax in breast cancer cell line (MCF-7); assay: Bax level assay in MCF-7 cells; type: cell-based, human; conditions: for Bax Fold Change: increase over control untreated cells
[12] = tested on: Bcl-2 in breast cancer cell line (MCF-7); assay: Bcl-2 level assay in MCF-7 cells; type: cell-based, human; conditions: for Bcl-2 Fold Change: reduced level vs control
[13] = tested on: p53 in MCF-7; assay: p53 transcription/level in MCF-7; type: cell-based, human; conditions: MCF-7 cells
Text: p53 is a unique protein that participates in several physiological processes such as cell metabolism, stem cell maintenance, and cell adhesion. Because p53 is frequently inactivated in cancer cells, the cells are unable to undergo apoptosis. Similarly, activating, or stabilizing p53 aids cancer cells in normalizing p53-controlled physiological processes and increasing apoptotic activity.

[14] = target: CDK2 enzyme (Homo sapiens, UniProt P24941); assay: CDK2 inhibitory assay
[15] = tested on: Caspase-3 in MCF-7 breast cancer cell line; assay: Caspase-3 level in MCF-7 cells; conditions: for Caspase-3 Fold Change: vs control untreated cells
[16] = tested on: A549 lung, MCF-7 breast, Panc-1 Pancreatic, and HT-29 colon cancer cell lines; design: method as in PMID 31128433; conditions: A549, MCF-7, Panc-1, HT-29; read-out: GI50 against the four examined cell lines (mean GI50); cited from earlier work

Structure (SMILES)	IC50 [2] [nM]	IC50 [3] [nM]	IC50 [4] [nM]	IC50 [5] [nM]	IC50 [6] [nM]	Caspase-8 Conc [8] [ng/mL]	Caspase-8 Fold Change [8] [fold]	Caspase-9 Conc [9] [ng/mL]	Caspase-9 Fold Change [9] [fold]	Cytochrome C Conc [10] [ng/mL]	Cytochrome C Fold Change [10] [fold]	Bax Conc [11]	Bax Fold Change [11] [fold]	Bcl-2 Conc [12] [ng/mL]	Bcl-2 Fold Change [12] [fold]	p53 Conc [13]	Caspase-3 Conc [15] [pg/mL]	Caspase-3 Fold Change [15] [fold]	further results
Cc1c(C(=O)NCCc2ccc(N3CCCC3C)cc2)[nH]c2ccc(Cl)cc12 (stereo not shown) [Compound 5e, 5-Chloro-3-methyl-N-(4-(2-methylpyrrolidin-1-yl)phenethyl)-1H-indole-2-carboxamide]	950 ± 50	800 ± 50	1000 ± 200	1100 ± 100	950	2.17	10.90	17.25	18.15	0.80	16	296.50 pg/mL and 296.50 ± 2.50 pg/mL	36	0.87	5.90	1435 pg/mL and 1435 ± 15 pg/mL	635.50 ± 5.50	9.70	viability at 4 days, 50 µM [1]: 93%; IC50 [7]: 93 ± 8 nM; IC50 [14]: 13 ± 1 nM; fold more active than dinaciclib on CDK2 ([14]; vs reference dinaciclib): 1.5 fold
COc1cccc2c1C(=O)c1c(O)c3c(c(O)c1C2=O)C[C@@](O)(C(=O)CO)C[C@@H]3O[C@H]1C[C@H](N)[C@H](O)[C@H](C)O1 [Doxorubicin, reference compound]	1200 ± 200	900 ± 100	1400 ± 200	1000 ± 100	1100	1.80	9.00	16.25	17.00	0.60	12	275.80 ± 2.50 pg/mL	33	0.98	5.20	1265 ± 10 pg/mL	503.50 ± 4.50	7.70	p53 Fold Change ([13]; vs control): 25 fold; p53 Conc ([13]; listed as doxorubicin): 1265 pg/mL; GI50 [16]: 1130 nM
